In data set [1] the test system is allergic rhinitis. The conditions noted are these: dosed intranasally; cited from earlier work.
The subject of data set [2] is allergic rhinitis. As to conditions: phase II; cited from earlier work.
For data set [3], the system named is patients with relapsed or refractory B-Cell non-Hodgkin's lymphoma (NHL). The conditions noted are these: cited from earlier work.
Data set [4] deals with Recombinant human VEGFR2 (KDR) (Homo sapiens (Human), UniProt P35968). The data set is described as follows: VEGFR2 (KDR) enzyme assay, TR-FRET kinase assay (3). In kind it is biochemical. As to conditions: read-out: Vegfr enzyme assay (3) IC50. For orientation: TR-FRET usually uses a lanthanide donor and a delayed reading to cut background.
Chain of Recombinant human VEGFR2 (KDR) (P35968 786-1356): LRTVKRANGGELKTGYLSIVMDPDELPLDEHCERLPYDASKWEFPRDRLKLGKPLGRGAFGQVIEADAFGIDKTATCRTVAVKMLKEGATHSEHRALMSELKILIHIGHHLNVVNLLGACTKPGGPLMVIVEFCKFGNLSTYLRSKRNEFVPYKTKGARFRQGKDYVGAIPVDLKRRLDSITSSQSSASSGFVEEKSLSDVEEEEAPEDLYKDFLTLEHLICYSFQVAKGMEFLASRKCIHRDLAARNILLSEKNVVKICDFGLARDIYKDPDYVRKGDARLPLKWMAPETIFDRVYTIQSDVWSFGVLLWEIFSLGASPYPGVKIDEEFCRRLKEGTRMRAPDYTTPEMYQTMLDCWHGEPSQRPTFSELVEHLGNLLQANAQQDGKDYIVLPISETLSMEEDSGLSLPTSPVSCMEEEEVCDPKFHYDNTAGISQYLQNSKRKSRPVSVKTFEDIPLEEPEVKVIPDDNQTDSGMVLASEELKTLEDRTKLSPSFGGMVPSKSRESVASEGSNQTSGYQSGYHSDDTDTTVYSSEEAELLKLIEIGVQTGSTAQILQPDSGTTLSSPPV
Experimental: VEGFR2 (KDR) Enzyme Assay—Time-resolved Fluorescence Resonance Energy Transfer Kinase Assay
Recombinant human VEGFR2 (KDR) intracellular domain (including the entire kinase domain) was expressed as a GST-6His-tagged protein*. The activity of VEGFR2 was assessed using a time-resolved fluorescence resonance energy transfer (TR-FRET) assay. Test compounds at the desired concentrations in 100% DMSO or 100% DMSO vehicle were added in 0.1 μL to a Greiner low-volume, 384-well, black plate (#784076). The plate was centrifuged minimally at 1000 RPM for 1 min. to force all of the liquid to the bottom of the wells prior to addition of any assay reagents. *Purification of Recombinant GST-6His-VEGFR2
VEGFR2 (100 nM typically) was activated at room temperature for 20 min. in the presence of 100 mM HEPES, pH 7.5, 10 mM MgCl2, 100 μM ATP, 300 μM DTT, and 0.1 mg/mL BSA. […] The solution of activated VEGFR2 was diluted 100-fold in 200 mM HEPES, pH 7.5, 0.2 mg/mL BSA, and 0.6 mM DTT. The VEGFR2 catalyzed reaction was initiated by the addition of 5 μL of the diluted, activated VEGFR2. […] After incubation for 10 min. at room temperature, phosphorylation of the biotinylated peptide substrate was measured as a ratio of specific 665 nm energy transfer signal to reference europium 615 nm signal using a Viewlux 1430 ultraHTS Microplate Imager (PerkinElmer, Turku, Finland).
In data set [5] the test system is Whole blood B cells. The data set is described as follows: CD69 whole blood assay (6). The format is cell-based. The conditions noted are these: Homo sapiens, B-cell, all data points. The method, then: 6. CD69 Whole Blood Assay
Whole blood B cells are stimulated ex-vivo using anti-IgM. […] The subsequent autophosphorylation of Syk leads to initiation of a signalling cascade resulting in B cell activation as indicated by expression of the activation marker CD69 on the cell surface. CD20/CD69+ve whole blood B cells are detected by flow cytometry.
Stimulation of Whole Blood B Cells with Anti-IqM
100 μl heparinised human blood was added to a 5 ml polypropylene tube containing 1 μl appropriately diluted compound solution and incubated for 30 min at 37° C. with 5% CO2. B cells were stimulated with 10 μl Fab′2 fragments of goat anti-human IgM (67.5 μg/ml final) for a further 3.5 h under the conditions previously described. The red blood cells were lysed and all other cells fixed by the addition of 2 ml Lyse/Fix buffer for 10 min at room temperature.
The cells were stained using a cocktail of mouse anti-human CD20 FITC and mouse anti-human CD69 APC conjugated antibodies. CD20/CD69+ve B cells present in the sample were detected by flow cytometry.
Compound dilutions were prepared using the Biomek 2000 automated robotic pipetting system.

Data set [6] concerns Ramos B cells. The experiment in a line: Ramos pErk assay (4). The format is cell-based. As to conditions: Homo sapiens, anti-IgM stimulated.
Experimental: Ramos B cells (human B cells of Burkitt's Lymphoma) are stimulated using anti-IgM. […] As a result Erk is phosphorylated and following cell lysis is detected by an immune capture assay.
Stimulation of Ramos Cells with Anti-IqM
Cells were plated at a density of 5×10^5/well in a volume of 25 μl assay medium (RPMI containing 10% heat inactivated foetal calf serum, 1% L-glutamine and 1% Penicillin/Streptomycin) in 96 v-well polypropylene plates. […] Cells are lysed by the addition of 55 μL 2×RIPA lysis buffer for 2 h at 4° C.
50 μl cell lysate was transferred to a 96 well MSD plate coated with anti-pErk1/2 (Thr/Thy: 202/204; 185/187) capture antibody and incubated for 16 hours at 4° C. The plate was washed and an anti-pErk detection antibody added (25 μl/well) for 2 h at room temperature. This was removed, 150 μL MSD read buffer added and the resultant electrochemiluminescence signal measured.
In data set [7] the test system is B lymphoma (BKS-2). The conditions noted are these: mouse, in vivo; cited from earlier work.

Read-outs that look alike come from different tables or passages of the source.

Consider `Oc1cccc(Nc2ncc(F)c(Nc3cccc(O)c3)n2)c1` [Example R112], for which, in data set [1], the “change in PGD2” value is given as “statistically significant decrease” and the clinical safety entry is “safe across a range of indicators”. Further, the efficacy versus placebo result in data set [2] is “lack of efficacy versus placebo”.
As for `COc1cc(Nc2ncc(F)c(Nc3ccc4c(n3)N(COP(=O)(O)O)C(=O)C(C)(C)O4)n2)cc(OC)c1OC` [Example R788, fostamatinib disodium], the clinical efficacy result in data set [3] (patients with DLBCL and CLL/SLL) is reported as “therapeutic benefit”. Also, the tolerability in patients entry in data set [3] (relapsed or refractory B-Cell NHL) is on record as “well-tolerated”.
On to `Cc1cccc(Nc2nc(N[C@@H]3CCCC[C@@H]3N)ncc2C(N)=O)c1` [Reference example 1], for which the IC50 in data set [4] was 6300 nM; in data set [5] (read-out: CD69 whole blood assay (6) IC50), 500 nM; in data set [5] (read-out: CD69 whole blood assay (6) pIC50 (converted)), 501 nM; in data set [6] (read-out: RAMOS pErk assay (4) IC50), 32 nM; in data set [6] (read-out: RAMOS pErk assay (4) pIC50 (converted)) it was 31.6 nM.
As to `COc1cc(/C=C/C(=O)CC(=O)/C=C/c2ccc(O)c(OC)c2)ccc1O` [curcumin], in data set [7], the “tumour burden as measured by the total splenocyte number” value was “significant reduction of tumour burden”.
